Experimental findings from patent publication US20240285552A1 (priority 2020, published 2024) are described below.

Like-named read-outs stand apart in the source and are kept apart here. Residues, ends and D or L forms follow the SMILES beside them. *: point of attachment. Cbz = O=C(OCc1ccccc1)*; CH2F = FC*

Series [1] deals with SARS-CoV-2 USA_WA1/2020. The experiment in a line: microbe, parasite or virus in culture. The format is cell-based.
The test system of series [2] is Vero E6 cells. The conditions noted are these: Example C (Table 4); for Conc. at Max. % Viability / Conc. at Min. % Viability / Max. Viability / Min. Viability: Vero E6.
Series [3] is described as follows: in vitro. Particulars: African green monkey.
Series [4] has as its target T1, recombinant human ACE2 (rhACE2) (Homo sapiens, UniProt Q9BYF1).
T1 construct: purchased BPS Bioscience 79923
The experiment in a line: ACE2 inhibitor screening assay (exopeptidase activity), CLQ and analogues, ZnCl2. The format is biochemical. The method, then:
An ACE2 inhibitor screening assay kit with fluorogenic substrate (Catalogue #79923) was purchased from BPS Bioscience (San Diego, CA) and adapted to measure the exopeptidase activity of ACE2 in the presence and absence of inhibitors. The fluorescence assay was performed using a black flat-bottom 96-well plate with a final reaction volume of 50 μL following the manufacturer's instructions. 10 mM stock solutions of the compounds were prepared in Dimethyl sulfoxide (DMSO). Next, the compounds were serially diluted in DMSO as follows: 100 μM, 50 μM, 10 μM, 1 μM, 0.5 μM, and 0.1 μM for CLQ and CLBQ14 as well as 10 μM and 1 μM for CLCQ. All experiments were performed in triplicates. Each plate contained a positive control of enzyme-treated with vehicle alone (2% DMSO) and a blank control with no enzyme. Briefly, each reaction contained 24 μL of purified recombinant human ACE2 protein (0.42 ng/L) in ACE2 buffer, 1 μL of compound at serially diluted concentrations, and 25 μL ACE2 fluorogenic substrate. The total reaction volume was 50 μL. […] Thereafter, the fluorescence intensities (λExcitation=535 nm, λEmission=595 nm) were measured using a Beckman Coulter DTX880 multimode plate reader. […]
The effects of CLQ, CLBQ14, and CLCQ on the exopeptidase activity of rhACE2 were determined using a fluorometric assay provided by BPS Bioscience and adapted accordingly. […]

The target in series [5] is T2, rhACE2 and SARS-CoV-2 Spike (RBD) protein interaction (Homo sapiens, UniProt Q9BYF1).
T2 construct: purchased RayBiotech CoV-SACE2-1
The experiment in a line: Spike (RBD)-ACE2 binding assay (ELISA). Details: species or system human; SARS-CoV-2. The conditions noted are these: bell shaped dose-response curve; CLQ series; read-out: IC50_2, ACE2-Spike (RBD) protein interaction.

The test system of series [6] is A549 cells.
Series [7] concerns SARS CoV-2 nanoluciferase reporter virus. In words: microbe, parasite or virus in culture. The series is classed as cell-based. Particulars: for Concentration at Maximum % Inhibition / Maximum Inhibition: A549-ACE2, NLRV; for IC50: read-out: IC50, viral replication, Nanoluciferase Reporter Virus Assay.
Series [8] can be described thus: in vitro. Particulars: human.
[9] abbreviates: Example C (Table 3), read-out: IC 50 against SARS-COV-2 Induced Cytopathic Effect in Vero E6 Cells.
[10] abbreviates: Severe acute respiratory syndrome coronavirus 2, Vero C1008, 72 h, read-out: IC50 against SARS-CoV-2 infection induced CPE.
[11] abbreviates: Severe acute respiratory syndrome coronavirus 2, Vero C1008, Example C (Table 3), read-out: IC 50 against SARS-COV-2 Induced Cytopathic Effect in Vero E6 Cells.
[12] abbreviates: Severe acute respiratory syndrome coronavirus 2, Vero C1008, Vero E6, Example B, highest concentration tested 30 μM, read-out: IC50 against SARS-CoV-2 infection induced CPE.
The mark [13] stands for this setting: Cytotoxicity CC50, Vero E6, 72 hours, Example C (Table 4).
Where [14] appears, read: 50% cytotoxic concentration (CC50), Vero E6, 72 hours, Examples A and B, highest concentration 30 μM.
The mark [15] stands for this setting: Severe acute respiratory syndrome coronavirus 2, A549, 72 h.
[16] abbreviates: Cytotoxicity CC50, A549 cells, 72 hours.

T1 sequence (Q9BYF1 18-805): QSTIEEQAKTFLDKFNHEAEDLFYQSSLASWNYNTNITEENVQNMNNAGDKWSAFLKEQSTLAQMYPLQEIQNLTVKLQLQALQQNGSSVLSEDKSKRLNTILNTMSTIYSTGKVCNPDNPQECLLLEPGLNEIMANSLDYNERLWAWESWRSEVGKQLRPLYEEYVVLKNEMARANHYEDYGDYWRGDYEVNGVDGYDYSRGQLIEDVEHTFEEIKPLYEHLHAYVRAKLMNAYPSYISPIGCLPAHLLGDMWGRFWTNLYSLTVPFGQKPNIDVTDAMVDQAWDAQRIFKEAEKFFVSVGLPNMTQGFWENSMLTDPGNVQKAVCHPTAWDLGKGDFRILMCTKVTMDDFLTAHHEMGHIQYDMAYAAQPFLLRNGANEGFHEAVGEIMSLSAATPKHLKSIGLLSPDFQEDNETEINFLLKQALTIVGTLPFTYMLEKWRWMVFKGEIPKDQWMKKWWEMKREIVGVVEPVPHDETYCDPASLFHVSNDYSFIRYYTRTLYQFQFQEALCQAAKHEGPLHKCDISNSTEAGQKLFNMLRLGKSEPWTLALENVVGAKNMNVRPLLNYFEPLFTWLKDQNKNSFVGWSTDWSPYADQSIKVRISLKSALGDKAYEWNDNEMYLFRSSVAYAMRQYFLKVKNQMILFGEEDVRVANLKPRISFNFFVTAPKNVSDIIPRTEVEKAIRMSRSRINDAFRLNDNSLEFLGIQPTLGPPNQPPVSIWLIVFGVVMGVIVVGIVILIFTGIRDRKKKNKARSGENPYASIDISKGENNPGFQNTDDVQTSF
T2 sequence (Q9BYF1 18-740): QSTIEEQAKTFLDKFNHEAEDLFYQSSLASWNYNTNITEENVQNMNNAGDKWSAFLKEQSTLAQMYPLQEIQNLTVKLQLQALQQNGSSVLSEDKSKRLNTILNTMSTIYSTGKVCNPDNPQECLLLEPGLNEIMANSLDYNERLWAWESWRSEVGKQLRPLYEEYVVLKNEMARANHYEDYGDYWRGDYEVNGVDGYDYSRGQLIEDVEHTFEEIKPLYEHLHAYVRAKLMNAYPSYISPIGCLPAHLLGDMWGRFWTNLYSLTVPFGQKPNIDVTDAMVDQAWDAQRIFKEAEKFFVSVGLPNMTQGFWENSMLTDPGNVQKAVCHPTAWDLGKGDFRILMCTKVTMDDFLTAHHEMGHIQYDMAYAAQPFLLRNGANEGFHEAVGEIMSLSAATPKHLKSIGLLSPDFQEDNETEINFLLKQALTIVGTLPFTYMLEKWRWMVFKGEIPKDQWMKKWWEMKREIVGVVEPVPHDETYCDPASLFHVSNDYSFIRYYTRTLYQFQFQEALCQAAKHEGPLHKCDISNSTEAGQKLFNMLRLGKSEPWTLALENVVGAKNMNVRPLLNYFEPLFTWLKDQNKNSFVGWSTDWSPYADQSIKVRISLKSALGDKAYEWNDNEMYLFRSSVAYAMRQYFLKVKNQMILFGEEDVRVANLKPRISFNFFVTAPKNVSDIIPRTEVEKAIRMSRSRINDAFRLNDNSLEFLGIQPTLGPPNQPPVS

On to `CCOC(=O)[C@H]1O[C@@H]1C(=O)N[C@@H](CC(C)C)C(=O)NCCC(C)C` [Aloxistatin], for which, in series [1] (Example C (Table 3)), the “Concentration at Maximum % Inhibition” value came to 15 µM and the “Maximum Inhibition” value is reported as 130.81%. For the same compound, the IC50 in series [1] (setting [9]) came out at 4.59 µM. Moreover, in series [1] (setting [10]), the IC50 amounted to 16.7 µM. For the same compound, the IC50 in series [1] (setting [11]) was 4.58 µM. Further, the IC50 in series [1] (setting [12]) came out at 21.8 µM. For the same compound, in series [2], the “Conc. at Max. % Viability” value was determined as 234 nM, the “Conc. at Min. % Viability” value came out at 117 nM, the “Max. Viability” value is 106.71% and the “Min. Viability” value is recorded as 93.02%. For the same compound, in series [3] (setting [13]), the CC50 at 72 h was more than 30 µM.

For the compound `Oc1c(Br)cc(Cl)c2cccnc12` [CLBQ14, 7-bromo-5-chloro-8-hydroxyquinoline], the IC50 in series [1] (setting [10]) is 14.7 µM. Also, the inhibition at 30 µM in series [1] (Severe acute respiratory syndrome coronavirus 2, Vero C1008, at 30 μM, Example A, read-out: maximum inhibition of CPE) is approximately 103%. The same compound came in with a CC50 at 72 h in series [3] (setting [14]) of more than 30 µM.

Regarding `Oc1c(Cl)cc(Cl)c2cccnc12` [CLCQ, 5,7-Dichloro-8-hydroxyquinoline], the IC50 in series [1] (setting [10]) was found to be 16.3 µM. In series [3] (setting [14]), this compound displayed a CC50 of more than 30 µM.

As to `Oc1c(I)cc(Cl)c2cccnc12` [CLQ, 5-chloro-7-iodo-8-quinolinol], the IC50 in series [4] (2.5 hours, room temperature, read-out: IC50 against rhACE2 exopeptidase activity) is 5.36 µM; in series [1] (setting [10]) it was 12.6 µM; in series [5], 18.2 µM. The compound also showed a CC50 at 72 h in series [3] (setting [14]) of more than 30 µM.

On to `CC(C)C[C@H](NC(=O)OCc1ccccc1)C(=O)N[C@@H](CC(C)C)C(=O)N[C@@H](Cc1ccc(O)cc1)C(=O)CF` [Calpain Inhibitor IV] (Cbz-Leu-Leu-Tyr-CH2F), for which the “Concentration at Maximum % Inhibition” value in series [1] (Example C (Table 3)) was 7.17 µM; in series [7] it was “.0028 µM”. The figures for the “Maximum Inhibition” value in series [1] (Example C (Table 3)) and in series [7] were 115.91% and 99.56%, respectively. The IC50 was found to be 0.29 µM in series [1] (Vero E6, Example B, highest concentration tested 30 μM, read-out: IC50 against SARS-CoV-2 infection induced CPE); 3.73 µM in series [1] (read-out: IC 50 against SARS-COV-2 Induced Cytopathic Effect in Vero E6 Cells); 0.41 µM in series [1] (read-out: IC50 against SARS-CoV-2 infection induced CPE); 0.0005 µM in series [7]. The “Conc. at Max. % Viability” value in series [6] is 90 nM; in series [2], 56 nM. Also, the entries for the “Conc. at Min. % Viability” value in series [6] and in series [2] were 5.6 nM and 28 nM, respectively. Besides, the “Max. Viability” value in series [6] came to 94.37%; in series [2], 106.84%. For the same compound, the “Min. Viability” value in series [6] stood at 77.49%; in series [2] it was 99.77%. The CC50 in series [6] (read-out: Cytotoxicity CC50, 72 hours) was more than 0.179 µM; in series [2] (read-out: Cytotoxicity CC50, Vero E6, 72 hours), more than 7.17 µM.

As to `CCN(CC)CCCC(C)Nc1ccnc2cc(Cl)ccc12` (centres unmarked) [Chloroquine], the “Concentration at Maximum % Inhibition” value in series [1] (Example C (Table 3)) was 30 µM; in series [7], 15 µM. In addition, the “Maximum Inhibition” value in series [1] (Example C (Table 3)) came out at 114.51%; in series [7], 99.53%. Also, the IC50 worked out at 1.1 µM in series [1] (setting [10]), 8.85 µM in series [1] (setting [11]), 3.56 µM in series [1] (setting [12]) and 3.3 µM in series [7] (setting [15]). In addition, the figures for the CC50 at 72 h in series [8] and in series [3] were 18.4 µM and more than 30 µM, respectively. Also, the results for the “Conc. at Max. % Viability” value in series [6] and in series [2] were 23 nM and 469 nM, respectively. Further, the “Conc. at Min. % Viability” value in series [6] turned out to be 30000 nM; in series [2] it was 3750 nM. Besides, the “Max. Viability” value amounted to 117.48% in series [6] and 99.66% in series [2]. Moreover, the “Min. Viability” value stood at 9.11% in series [6] and 90.50% in series [2].

`CCN(CCO)CCCC(C)Nc1ccnc2cc(Cl)ccc12` (centres unmarked) [Hydroxychloroquine]: the IC50 in series [1] (setting [10]) was determined as 5.04 µM; in series [1] (setting [12]), 5.16 µM.

`CC(C)C(=O)OC[C@H]1O[C@@H](n2ccc(NO)nc2=O)[C@H](O)[C@@H]1O` [Molnupiravir] showed a CC50 at 72 h in series [8] (setting [16]) of more than 10 µM. In addition, in series [6], the “Conc. at Max. % Viability” value turned out to be 2 nM, the “Conc. at Min. % Viability” value was determined as 14 nM, the “Max. Viability” value turned out to be 98.56% and the “Min. Viability” value was 88.88%. Moreover, in series [7], the “Concentration at Maximum % Inhibition” value is 10 µM and the “Maximum Inhibition” value worked out at 91.12%. Moreover, in series [7] (setting [15]), the IC50 was determined as 4.2 µM.

`CC(C)(C)[C@H](NC(=O)C(F)(F)F)C(=O)N1C[C@H]2[C@@H]([C@H]1C(=O)N[C@H](C#N)C[C@@H]1CCNC1=O)C2(C)C` [PF-07321332]: in series [7], the “Concentration at Maximum % Inhibition” value turned out to be 0.5 µM, the “Maximum Inhibition” value was 99.67% and the IC50 worked out at 0.057 µM. In series [7] (listed as Paxlovid), the IC50 stood at 0.05 µM.

On to `CCC(CC)COC(=O)[C@H](C)N[P@](=O)(OC[C@H]1O[C@@](C#N)(c2ccc3c(N)ncnn23)[C@H](O)[C@@H]1O)Oc1ccccc1` [Remdesivir], for which the entries for the “Concentration at Maximum % Inhibition” value in series [1] (Example C (Table 3)) and in series [7] were 30 µM and 1.5 µM, respectively. The “Maximum Inhibition” value in series [1] (Example C (Table 3)) worked out at 120.89%; in series [7], 99.58%. Also, the IC50 was found to be 16.1 µM in series [1] (setting [9]), 4.42 µM in series [1] (setting [10]), 16 µM in series [1] (setting [11]) and 8.54 µM in series [1] (setting [12]). Also, the figures for the CC50 in series [8] (setting [16]) and in series [3] (setting [13]) were more than 3 µM and more than 30 µM, respectively. Besides, the “Conc. at Max. % Viability” value came out at 6 nM in series [6] and 3750 nM in series [2]. The “Conc. at Min. % Viability” value is 94 nM in series [6] and 117 nM in series [2]. Further, the figures for the “Max. Viability” value in series [6] and in series [2] were 95.46% and 100.73%, respectively. For the same compound, the “Min. Viability” value in series [6] came out at 84.65%; in series [2] it was 91.15%.

On to `[Cl-].[Cl-].[Zn+2]` [ZnCl2, Zinc Chloride], for which, in series [4] (100 μM to 100 nM), the “effect on rhACE2 exopeptidase activity” value was “increasing exopeptidase activity”.
